Here are results for 27 compounds from US20250382305A1 (PTC THERAPEUTICS, INC., priority 2022, published 2025).

One experiment relates to ATXN3 pre-mRNA. Nature of the experiment: RT-qPCR Assay to Quantify Exon 4 Skipping in ATXN3 pre-mRNA in Cells. The following applies: percent exon 4 skipping in ATXN3 pre-mRNA, RT-qPCR of cell lysates; average IC50. The class given is cell-based. Summed up:
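IC50 derives from a dose-response fit of percent exon 4 skipping, quantified by RT-qPCR on crude lysates. Compounds tested as 7-point 3.16-fold dilutions in duplicate; cells (10,000/well) were exposed for 24 h at 37 °C before lysis.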
A general note: Real-time PCR tracks product formation cycle by cycle.

Experiment [1] relates to Total ATXN3 (tATXN3) protein. Nature of the experiment: Endogenous Total ATXN3 (tATXN3) Protein Assay (MSD immunoassay of cell lysates). The following applies: average IC50, total ATXN3 protein in cell lysate after 48 h with compound (Table 1). It is filed as cell-based. The gist of the method: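 By electrochemiluminescent MSD sandwich immunoassay (mouse monoclonal capture, rabbit monoclonal and SULFO-TAG anti-rabbit detection), endogenous ATXN3 was quantified in lysates of cells treated 48 h at 37° C at 10,000 cells/well. Treatment used a 7-point 3.16-fold duplicate dilution series, with average IC50 grouped into star categories.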

Each structure is given as a SMILES string. pIC50: −log10 of the molar value. A value given as a limit tells only on which side of the number the result lay.

Consider `Cc1c([C@H]2CC=CC[C@@H]2N)sc2c(NCc3ccccc3)cc(Cl)nc12` [Compound 258, 2-((1S,6S)-6-aminocyclohex-3-en-1-yl)-N-benzyl-5-chloro-3-methylthieno[3,2-b]pyridin-7-amine], for which the pIC50 (as a rule, the IC50 on a negative log10 scale, so that one unit is a factor of ten) in the experiment with ATXN3 pre-mRNA was at least 7.52; in experiment [1], 6.52 to 7.52.

Regarding `Cc1c([C@H]2COCC[C@@H]2N)sc2c(NCc3ccco3)cc(Cl)nc12` [Compound 260, 2-((3R,4S)-4-aminotetrahydro-2H-pyran-3-yl)-5-chloro-N-(furan-2-ylmethyl)-3-methylthieno[3,2-b]pyridin-7-amine], the pIC50 with ATXN3 pre-mRNA is at least 7.52; in experiment [1], 6.52 to 7.52.

Regarding `[2H]C1=C([2H])C([2H])([2H])[C@H](c2sc3c(NCc4cccs4)cc(Cl)nc3c2C)[C@@H](N)C1([2H])[2H]` [Compound 261, 2-((1S,6S)-6-aminocyclohex-3-en-1-yl-2,2,3,4,5,5-d6)-5-chloro-3-methyl-N-(thiophen-2-ylmethyl)thieno[3,2-b]pyridin-7-amine], the pIC50 (with ATXN3 pre-mRNA; in experiment [1]) was 6.52 to 7.52 each time.

Take `N[C@H]1CCCO[C@@H]1c1c(Cl)c2nc(Cl)cc(NCc3cccs3)c2n1C(F)F` [Compound 262, 2-((2S,3S)-3-aminotetrahydro-2H-pyran-2-yl)-3,5-dichloro-1-(difluoromethyl)-N-(thiophen-2-ylmethyl)-1H-pyrrolo[3,2-b]pyridin-7-amine]: the pIC50 (with ATXN3 pre-mRNA; in experiment [1]) was 6.52 to 7.52 each time.

As to `N[C@H]1CC=CC[C@@H]1c1sc2c(NCc3ccccc3)nc(Cl)nc2c1Cl` [Compound 263, 6-((1S,6S)-6-aminocyclohex-3-en-1-yl)-N-benzyl-2,7-dichlorothieno[3,2-d]pyrimidin-4-amine], the negative logarithm of the IC50 (pIC50) (in the experiment on ATXN3 pre-mRNA; in experiment [1]) was 6.52 to 7.52 throughout.

With `CN[C@H]1CCCC[C@@H]1c1sc2c(NCc3cccs3)cc(Cl)nc2c1C#CCCCO` [Compound 264, 5-(5-chloro-2-((1S,2S)-2-(methylamino)cyclohexyl)-7-((thiophen-2-ylmethyl)amino)thieno[3,2-b]pyridin-3-yl)pent-4-yn-1-ol], the pIC50 with ATXN3 pre-mRNA is at least 7.52; in experiment [1], 6.52 to 7.52.

Take `N[C@H]1COCC[C@@H]1c1sc2c(NCc3nccs3)cc(Cl)nc2c1I` [Compound 265, 2-((3R,4S)-3-aminotetrahydro-2H-pyran-4-yl)-5-chloro-3-iodo-N-(thiazol-2-ylmethyl)thieno[3,2-b]pyridin-7-amine]: the pIC50 in the experiment with ATXN3 pre-mRNA is at least 7.52; in experiment [1], 6.52 to 7.52.

As for `C=Cc1c([C@H]2CC=CC[C@@H]2N)sc2c(NCc3cccs3)cc(Cl)nc12` [Compound 267, 2-((1S,6S)-6-aminocyclohex-3-en-1-yl)-5-chloro-N-(thiophen-2-ylmethyl)-3-vinylthieno[3,2-b]pyridin-7-amine], the negative logarithm of the IC50 (pIC50) (in the experiment on ATXN3 pre-mRNA; in experiment [1]) was 6.52 to 7.52 each time.

As to `Cc1c([C@H]2CC=CC[C@@H]2N)sc2c(NCc3cccs3)nc(Cl)nc12` [Compound 268, 6-((1S,6S)-6-aminocyclohex-3-en-1-yl)-2-chloro-7-methyl-N-(thiophen-2-ylmethyl)thieno[3,2-d]pyrimidin-4-amine], the pIC50 (in the experiment on ATXN3 pre-mRNA; in experiment [1]) was 6.52 to 7.52 in each case.

Regarding `N[C@H]1CCCO[C@@H]1c1c(Br)c2nc(Cl)cc(NCc3ccco3)c2n1C(F)F` [Compound 270, 2-((2S,3S)-3-aminotetrahydro-2H-pyran-2-yl)-3-bromo-5-chloro-1-(difluoromethyl)-N-(furan-2-ylmethyl)-1H-pyrrolo[3,2-b]pyridin-7-amine], the pIC50 (in the experiment with ATXN3 pre-mRNA; in experiment [1]) was 6.52 to 7.52 each time.

`N[C@H]1CCCO[C@@H]1c1c(Cl)c2nc(Cl)nc(NCc3ccco3)c2n1C(F)F` [Compound 271, 6-((2S,3S)-3-aminotetrahydro-2H-pyran-2-yl)-2,7-dichloro-5-(difluoromethyl)-N-(furan-2-ylmethyl)-5H-pyrrolo[3,2-d]pyrimidin-4-amine]: the negative-log IC50 (pIC50) (with ATXN3 pre-mRNA; in experiment [1]) was 6.52 to 7.52 throughout.

Consider `N[C@H]1CCCO[C@@H]1c1c(Cl)c2nc(Cl)cc(NCc3ccco3)c2n1C(F)F` [Compound 273, 2-((2S,3S)-3-aminotetrahydro-2H-pyran-2-yl)-3,5-dichloro-1-(difluoromethyl)-N-(furan-2-ylmethyl)-1H-pyrrolo[3,2-b]pyridin-7-amine], for which the pIC50 in the experiment on ATXN3 pre-mRNA was at least 7.52; in experiment [1], 6.52 to 7.52.

As to `Cc1c([C@H]2CC=C(C(N)=O)C[C@@H]2N)sc2c(NCc3cccs3)cc(Cl)nc12` [Compound 274, (4S,5S)-5-amino-4-(5-chloro-3-methyl-7-((thiophen-2-ylmethyl)amino)thieno[3,2-b]pyridin-2-yl)cyclohex-1-ene-1-carboxamide], the pIC50 (with ATXN3 pre-mRNA; in experiment [1]) was 6.52 to 7.52 in each case.

`N[C@H]1CC=CC[C@@H]1c1c(I)c2nc(Cl)nc(NCc3ccco3)c2n1C(F)F` [Compound 276, 6-((1S,6S)-6-aminocyclohex-3-en-1-yl)-2-chloro-5-(difluoromethyl)-N-(furan-2-ylmethyl)-7-iodo-5H-pyrrolo[3,2-d]pyrimidin-4-amine]: the pIC50 (in the experiment on ATXN3 pre-mRNA; in experiment [1]) was 6.52 to 7.52 each time.

Take `CCOC(=O)C1=CC[C@H](c2sc3c(NCc4cccs4)cc(Cl)nc3c2C)[C@@H](N)C1` [Compound 277, ethyl (4S,5S)-5-amino-4-(5-chloro-3-methyl-7-((thiophen-2-ylmethyl)amino)thieno[3,2-b]pyridin-2-yl)cyclohex-1-ene-1-carboxylate]: the pIC50 in the experiment on ATXN3 pre-mRNA is at least 7.52; in experiment [1], 6.52 to 7.52.

As to `Cc1c([C@H]2CCCC[C@@H]2N)sc2c(NCc3ccccc3)cc(Cl)nc12` [Compound 280, 2-((1S,2S)-2-aminocyclohexyl)-N-benzyl-5-chloro-3-methylthieno[3,2-b]pyridin-7-amine], the pIC50 (in the experiment with ATXN3 pre-mRNA; in experiment [1]) was 6.52 to 7.52 in each case.

On to `N[C@H]1CCCO[C@@H]1c1c(Br)c2nc(Cl)cc(NCc3cccs3)c2n1C(F)F` [Compound 281, 2-((2S,3S)-3-aminotetrahydro-2H-pyran-2-yl)-3-bromo-5-chloro-1-(difluoromethyl)-N-(thiophen-2-ylmethyl)-1H-pyrrolo[3,2-b]pyridin-7-amine], for which the negative-log IC50 (pIC50) (with ATXN3 pre-mRNA; in experiment [1]) was 6.52 to 7.52 each time.

As to `CC#CCNc1cc(Cl)nc2c(I)c([C@H]3CCCC[C@@H]3N)sc12` [Compound 283, 2-((1S,2S)-2-aminocyclohexyl)-N-(but-2-yn-1-yl)-5-chloro-3-iodothieno[3,2-b]pyridin-7-amine], the pIC50 (in the experiment on ATXN3 pre-mRNA; in experiment [1]) was 6.52 to 7.52 each time.

As to `N[C@H]1COCC[C@@H]1c1sc2c(NCc3nccs3)cc(Cl)nc2c1Br` [Compound 285, 2-((3R,4S)-3-aminotetrahydro-2H-pyran-4-yl)-3-bromo-5-chloro-N-(thiazol-2-ylmethyl)thieno[3,2-b]pyridin-7-amine], the pIC50 (with ATXN3 pre-mRNA; in experiment [1]) was 6.52 to 7.52 in each case.

For the compound `N[C@H]1CC=CC[C@@H]1c1sc2c(NCc3ccccc3F)cc(Cl)nc2c1Br` [Compound 287, 2-((1S,6S)-6-aminocyclohex-3-en-1-yl)-3-bromo-5-chloro-N-(2-fluorobenzyl)thieno[3,2-b]pyridin-7-amine], the pIC50 (with ATXN3 pre-mRNA; in experiment [1]) was 6.52 to 7.52 throughout.

With `Cc1c([C@H]2CC=CC[C@@H]2N)sc2c(NCc3ccco3)cc(C#N)nc12` [Compound 289, 2-((1S,6S)-6-aminocyclohex-3-en-1-yl)-7-((furan-2-ylmethyl)amino)-3-methylthieno[3,2-b]pyridine-5-carbonitrile], the pIC50 (in the experiment on ATXN3 pre-mRNA; in experiment [1]) was 6.52 to 7.52 throughout.

Regarding `N[C@H]1CCCC(F)(F)[C@@H]1c1sc2c(NCc3cccs3)cc(Cl)nc2c1Cl` [Compound 291, 2-((1R,6S)-6-amino-2,2-difluorocyclohexyl)-3,5-dichloro-N-(thiophen-2-ylmethyl)thieno[3,2-b]pyridin-7-amine], the negative-log IC50 (pIC50) (in the experiment on ATXN3 pre-mRNA; in experiment [1]) was 6.52 to 7.52 each time.

Regarding `[2H]C1=C([2H])C([2H])([2H])[C@H](c2sc3c(NCc4ccccc4)cc(Cl)nc3c2C)[C@@H](N)C1([2H])[2H]` [Compound 292, 2-((1S,6S)-6-aminocyclohex-3-en-1-yl-2,2,3,4,5,5-d6)-N-benzyl-5-chloro-3-methylthieno[3,2-b]pyridin-7-amine], the pIC50 (in the experiment with ATXN3 pre-mRNA; in experiment [1]) was 6.52 to 7.52 throughout.

As to `N[C@@H]1CCCC[C@H]1c1sc2c(NCc3ccco3)cc(Cl)nc2c1Cl` [Compound 296, 2-((1R,2R)-2-aminocyclohexyl)-3,5-dichloro-N-(furan-2-ylmethyl)thieno[3,2-b]pyridin-7-amine], the pIC50 (with ATXN3 pre-mRNA; in experiment [1]) was 6.52 to 7.52 each time.

On to `N[C@H]1[C@H](O)CCC[C@@H]1c1sc2c(NCc3cccs3)cc(Cl)nc2c1Cl` [Compound 298, (1R,2R,3S)-2-amino-3-(3,5-dichloro-7-((thiophen-2-ylmethyl)amino)thieno[3,2-b]pyridin-2-yl)cyclohexan-1-ol], for which the pIC50 (in the experiment on ATXN3 pre-mRNA; in experiment [1]) was 6.52 to 7.52 each time.

As for `N[C@@H]1CC=CC[C@H]1c1sc2c(NCc3ccco3)cc(Cl)nc2c1Cl` [Compound 299, 2-((1R,6R)-6-aminocyclohex-3-en-1-yl)-3,5-dichloro-N-(furan-2-ylmethyl)thieno[3,2-b]pyridin-7-amine], the pIC50 (with ATXN3 pre-mRNA; in experiment [1]) was 6.52 to 7.52 each time.

As for `CC#CCNc1cc(Cl)nc2c(Br)c([C@H]3CCCC[C@@H]3N)sc12` [Compound 301, 2-((1S,2S)-2-aminocyclohexyl)-3-bromo-N-(but-2-yn-1-yl)-5-chlorothieno[3,2-b]pyridin-7-amine], the pIC50 (in the experiment with ATXN3 pre-mRNA; in experiment [1]) was 6.52 to 7.52 each time.
